Measured values published in paper PMC11108860 (Heliyon, 2024).
Read-outs that look alike come from different tables or passages of the source. Blank lines part the entries; values can stand above or below the compound they belong to.

Legend:
Molt-4 cells [1] = experiment: Calcium imaging; type: cell-based
OR2AT4-6xHis protein = molecular target: T1, OR2AT4-6xHis protein (Homo sapiens, UniProt A6NND4); experiment: SPR sensorgrams on immobilized OR2AT4-6xHis, concentration series; type: binding; settings: 100 μM (Fig. 2A)
T1 sequence (A6NND4 1-320): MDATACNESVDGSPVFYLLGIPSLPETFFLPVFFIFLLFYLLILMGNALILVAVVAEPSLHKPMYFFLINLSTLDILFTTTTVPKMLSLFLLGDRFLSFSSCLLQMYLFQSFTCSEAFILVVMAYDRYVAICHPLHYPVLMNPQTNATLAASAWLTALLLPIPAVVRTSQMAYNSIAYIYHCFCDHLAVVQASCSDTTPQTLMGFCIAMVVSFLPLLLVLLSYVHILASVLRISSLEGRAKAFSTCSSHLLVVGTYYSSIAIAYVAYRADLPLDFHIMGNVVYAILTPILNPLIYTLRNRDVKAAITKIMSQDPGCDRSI

OR2AT4 = molecular target: T2, OR2AT4 (Homo sapiens, UniProt A6NND4); experiment: Calcium imaging; type: cell-based; settings: 0 to 1 mM; OR2AT4-expressing cells
T2 sequence (A6NND4 1-320): T1 sequence (A6NND4 1-320)

K562 cells [2] = experiment: Cell viability assay; type: cell-based, human; settings: for cell viability: K562; for IC50: Homo sapiens, read-out: IC50 (cell viability)
K562 cells [3] = experiment: Calcium imaging; type: cell-based, human
K562 cells [4] = experiment: Western blotting of proliferation- and apoptosis-related proteins in K562 cells; type: cell-based, human; settings: for cleaved caspase-3 after inhibitor treatment: Fig. 6B,D, similar to EGCG treatment
Molt-4 cells [5] = experiment: Cell viability assay; type: cell-based; settings: 24, 48, and 72 h
K562 cells [6] = experiment: Apoptosis assay; type: cell-based, human; settings: for percentage of total apoptotic cells: 200 μM
[7] = K562, EGCG 200 μM, 30 min after treatment
[8] = OR2AT4 siRNA-transfected K562 cells, EGCG treatment

- reactivity with OR2AT4 recombinant protein (SPR) (OR2AT4-6xHis protein): confirming the reactivity
Structure (SMILES): CC1=CCC(CCC(C)C(C)O)C1(C)C (stereo not drawn) [Sandalore, reference compound]
- intracellular calcium response in Molt-4 cells (Molt-4 cells [1]; 2 mM): no immediate calcium response
- intracellular calcium response, dose-response (OR2AT4): increased calcium response in a concentration-dependent manner
- cell viability (K562 cells [2]; Fig. S2): decreased cell viability in a concentration-dependent manner
- intracellular calcium response in K562 cells (K562 cells [3]; 2 mM): increased intracellular Ca^2+ levels

Structure (SMILES): C[S+]([O-])c1ccc(-c2nc(-c3ccncc3)c(-c3ccc(F)cc3)[nH]2)cc1 (stereo not drawn) [SB203580, reference compound]
- cleaved caspase-3 after inhibitor treatment (K562 cells [4]; K562): upregulation
- p-p38 MAPK (K562 cells [4]; K562, Fig. 6C): downregulation

Structure (SMILES): CCCCCCCCCCCCCCCCCCOP(=O)([O-])OC1CC[N+](C)(C)CC1 [Perifosine, reference compound]
- p-Akt (K562 cells [4]; K562, Fig. 6A): downregulation
- cleaved caspase-3 after inhibitor treatment (K562 cells [4]; K562): upregulation

Structure (SMILES): O=C(O[C@@H]1Cc2c(O)cc(O)cc2O[C@@H]1c1cc(O)c(O)c(O)c1)c1cc(O)c(O)c(O)c1 [EGCG, (−)-epigallocatechin gallate]
- intracellular calcium response in Molt-4 cells (Molt-4 cells [1]; 200 μM): no immediate calcium response
- concentrations with sudden onset of cell death (Molt-4 cells [5]): above 100 μM
- intracellular calcium response, dose-response (OR2AT4): increased intracellular calcium levels in a concentration-dependent manner
- IC50 (K562 cells [2]; K562, 48 h): 146 µM
- IC50 (K562 cells [2]; K562, 72 h): 158 µM
- cell viability (K562 cells [2]; 24, 48, and 72 h, 0-500 μM): decreased cell viability in a time- (24, 48, and 72 h) and concentration-dependent manner
- intracellular calcium response in K562 cells (K562 cells [3]; 0.2 mM): elevated the calcium response
- expression of Bax (K562 cells [4]; K562): no significant difference
- expression of Bcl-2 (K562 cells [4]; K562): no significant difference
- levels of cleaved caspase-3, time course (K562 cells [4]; K562, 200 μM, 24 and 48 h): increased in a time-dependent manner
- protein level of phosphor-AKT (K562 cells [4]; [7]): downregulated
- protein level of phosphor-p38 MARK (K562 cells [4]; [7]): downregulated
- expression of phosphor-STAT5 (K562 cells [4]; K562, EGCG 200 μM, starting from 15 min): began to decrease
- expression levels of cleaved caspase-8 (K562 cells [4]; K562, time- and concentration-dependent): upregulated
- caspase-8 in OR2AT4 siRNA-transfected K562 cells (K562 cells [4]; [8]): significantly reduced
- cleaved caspase-3 in OR2AT4 siRNA-transfected K562 cells (K562 cells [4]; [8]): significantly reduced
- percentage of late apoptotic cells, time course (K562 cells [6]; 200 μM, 24, 48, and 72 h): increased the percentage of late apoptotic cells in a time-dependent manner
- percentage of total apoptotic cells (K562 cells [6]; 24 h): 50%
- percentage of total apoptotic cells (K562 cells [6]; 48 h): 58.03%
- percentage of total apoptotic cells (K562 cells [6]; 72 h): 64.52%

Structure (SMILES): COc1cc2c3cc1Oc1c(OC)c(OC)cc4c1[C@@H](Cc1ccc(O)c(c1)Oc1ccc(cc1)C[C@@H]3N(C)CC2)N(C)CC4 [Berbamine]
- intracellular calcium response, dose-response (OR2AT4): increased intracellular calcium levels in a concentration-dependent manner
